Legend:
[1] = target: Mitogen-activated protein kinase kinase kinase kinase 3 (Homo sapiens) (UniProt Q8IVH8); conditions: Compound concentration 1000.0 nM
[2] = target: Homeodomain-interacting protein kinase 3 (Homo sapiens) (UniProt Q9H422); conditions: Compound concentration 1000.0 nM
[3] = target: Tyrosine-protein kinase JAK3 (Homo sapiens) (UniProt P52333); conditions: Compound concentration 1000.0 nM
[4] = target: Macrophage colony-stimulating factor 1 receptor (Homo sapiens) (UniProt P07333); conditions: Compound concentration 1000.0 nM
[5] = target: Serine/threonine-protein kinase NLK (Homo sapiens) (UniProt Q9UBE8); conditions: Compound concentration 1000.0 nM
[6] = target: Serine/threonine-protein kinase OSR1 (Homo sapiens) (UniProt O95747); conditions: Compound concentration 1000.0 nM
[7] = target: Serine/threonine-protein kinase SIK2 (Homo sapiens) (UniProt Q9H0K1); conditions: Compound concentration 1000.0 nM
[8] = system: Mast/stem cell growth factor receptor Kit (Homo sapiens), P10721 [L576P]; conditions: Compound concentration 1000.0 nM
[9] = target: Mitogen-activated protein kinase kinase kinase 15 (Homo sapiens) (UniProt Q6ZN16); conditions: Compound concentration 1000.0 nM
[10] = target: Cyclin-dependent kinase-like 2 (Homo sapiens) (UniProt Q92772); conditions: Compound concentration 1000.0 nM
[11] = target: Casein kinase I isoform alpha-like (Homo sapiens) (UniProt Q8N752); conditions: Compound concentration 1000.0 nM
[12] = target: Ribosomal protein S6 kinase alpha-6 (Homo sapiens) (UniProt Q9UK32); conditions: Compound concentration 1000.0 nM
[13] = target: Angiopoietin-1 receptor (Homo sapiens) (UniProt Q02763); conditions: Compound concentration 1000.0 nM
[14] = target: TGF-beta receptor type-1 (Homo sapiens) (UniProt P36897); conditions: Compound concentration 1000.0 nM
[15] = system: Tyrosine-protein kinase ABL1 (Homo sapiens), P00519 [Y253F]; conditions: Compound concentration 1000.0 nM
[16] = target: Fibroblast growth factor receptor 1 (Homo sapiens) (UniProt P11362); conditions: Compound concentration 1000.0 nM
[17] = system: Epidermal growth factor receptor (Homo sapiens), P00533 [G719S]; conditions: Compound concentration 1000.0 nM
[18] = target: Vascular endothelial growth factor receptor 1 (Homo sapiens) (UniProt P17948); conditions: Compound concentration 1000.0 nM
[19] = target: Mitogen-activated protein kinase kinase kinase 2 (Homo sapiens) (UniProt Q9Y2U5); conditions: Compound concentration 1000.0 nM
[20] = target: Leucine-rich repeat serine/threonine-protein kinase 2 (Homo sapiens) (UniProt Q5S007); conditions: Compound concentration 1000.0 nM
[21] = target: Interleukin-1 receptor-associated kinase 1 (Homo sapiens) (UniProt P51617); conditions: Compound concentration 1000.0 nM
[22] = system: Mast/stem cell growth factor receptor Kit (Homo sapiens), P10721 [V559D]; conditions: Compound concentration 1000.0 nM
[23] = target: Tyrosine-protein kinase Blk (Homo sapiens) (UniProt P51451); conditions: Compound concentration 1000.0 nM
[24] = target: Beta-2 adrenergic receptor (Homo sapiens) (UniProt P07550); conditions: Compound concentration 10.0 uM
[25] = target: Mitotic checkpoint serine/threonine-protein kinase BUB1 (Homo sapiens) (UniProt O43683); conditions: Compound concentration 1000.0 nM
[26] = target: G protein-coupled receptor kinase 3 (Homo sapiens) (UniProt P35626); conditions: Compound concentration 1000.0 nM
[27] = target: Vascular endothelial growth factor receptor 3 (Homo sapiens) (UniProt P35916); conditions: Compound concentration 1000.0 nM
[28] = target: Tyrosine-protein kinase BTK (Homo sapiens) (UniProt Q06187); conditions: Compound concentration 1000.0 nM
[29] = target: Mitogen-activated protein kinase kinase kinase 6 (Homo sapiens) (UniProt O95382); conditions: Compound concentration 1000.0 nM
[30] = target: MAP kinase-interacting serine/threonine-protein kinase 2 (Homo sapiens) (UniProt Q9HBH9); conditions: Compound concentration 1000.0 nM
[31] = system: Epidermal growth factor receptor (Homo sapiens), P00533 [UNDEFINED MUTATION]; conditions: Compound concentration 1000.0 nM
[32] = target: Tyrosine-protein kinase receptor UFO (Homo sapiens) (UniProt P30530); conditions: Compound concentration 1000.0 nM
[33] = target: Tyrosine-protein kinase receptor Tie-1 (Homo sapiens) (UniProt P35590); conditions: Compound concentration 1000.0 nM
[34] = target: Cyclin-dependent kinase 17 (Homo sapiens) (UniProt Q00537); conditions: Compound concentration 1000.0 nM
[35] = target: MAP/microtubule affinity-regulating kinase 4 (Homo sapiens) (UniProt Q96L34); conditions: Compound concentration 1000.0 nM
[36] = target: Tyrosine-protein kinase Lyn (Homo sapiens) (UniProt P07948); conditions: Compound concentration 1000.0 nM
[37] = target: Homeodomain-interacting protein kinase 1 (Homo sapiens) (UniProt Q86Z02); conditions: Compound concentration 1000.0 nM
[38] = target: Serine/threonine-protein kinase Nek1 (Homo sapiens) (UniProt Q96PY6); conditions: Compound concentration 1000.0 nM
[39] = target: Phosphorylase b kinase gamma catalytic chain, skeletal muscle/heart isoform (Homo sapiens) (UniProt Q16816); conditions: Compound concentration 1000.0 nM
[40] = target: Aurora kinase C (Homo sapiens) (UniProt Q9UQB9); conditions: Compound concentration 1000.0 nM
[41] = target: Cyclin-dependent kinase 4 (Homo sapiens) (UniProt P11802); conditions: Compound concentration 1000.0 nM
[42] = system: Phosphatidylinositol 4,5-bisphosphate 3-kinase catalytic subunit alpha isoform (Homo sapiens), P42336 [E545K]; conditions: Compound concentration 1000.0 nM
[43] = target: Tyrosine-protein kinase ZAP-70 (Homo sapiens) (UniProt P43403); conditions: Compound concentration 1000.0 nM
[44] = target: Cytoplasmic tyrosine-protein kinase BMX (Homo sapiens) (UniProt P51813); conditions: Compound concentration 1000.0 nM
[45] = target: cGMP-dependent protein kinase 1 (Homo sapiens) (UniProt Q13976); conditions: Compound concentration 1000.0 nM

Fibroblast growth factor receptor 1 (Homo sapiens), sequence (P11362 22-822 limits assumed): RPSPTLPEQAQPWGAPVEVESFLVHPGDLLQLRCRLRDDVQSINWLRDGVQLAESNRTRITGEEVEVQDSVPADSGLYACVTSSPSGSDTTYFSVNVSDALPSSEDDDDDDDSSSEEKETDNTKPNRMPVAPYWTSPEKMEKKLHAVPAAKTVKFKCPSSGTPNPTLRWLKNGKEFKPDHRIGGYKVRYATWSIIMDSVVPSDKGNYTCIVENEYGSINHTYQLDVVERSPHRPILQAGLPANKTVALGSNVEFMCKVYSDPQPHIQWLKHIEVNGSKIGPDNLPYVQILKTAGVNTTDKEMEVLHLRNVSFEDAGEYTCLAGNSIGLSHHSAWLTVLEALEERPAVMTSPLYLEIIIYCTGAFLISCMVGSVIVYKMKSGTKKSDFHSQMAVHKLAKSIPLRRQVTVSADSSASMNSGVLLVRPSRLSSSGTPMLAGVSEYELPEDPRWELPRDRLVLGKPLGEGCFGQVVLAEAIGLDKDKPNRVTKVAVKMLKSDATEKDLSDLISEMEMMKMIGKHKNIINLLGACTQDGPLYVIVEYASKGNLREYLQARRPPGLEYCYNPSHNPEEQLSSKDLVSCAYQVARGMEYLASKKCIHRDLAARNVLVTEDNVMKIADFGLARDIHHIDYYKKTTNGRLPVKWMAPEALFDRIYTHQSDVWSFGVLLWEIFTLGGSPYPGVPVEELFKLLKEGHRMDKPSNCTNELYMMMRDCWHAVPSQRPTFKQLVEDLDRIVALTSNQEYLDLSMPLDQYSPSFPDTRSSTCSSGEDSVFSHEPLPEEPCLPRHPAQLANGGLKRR
Beta-2 adrenergic receptor (Homo sapiens), sequence (P07550 whole entry, looked up): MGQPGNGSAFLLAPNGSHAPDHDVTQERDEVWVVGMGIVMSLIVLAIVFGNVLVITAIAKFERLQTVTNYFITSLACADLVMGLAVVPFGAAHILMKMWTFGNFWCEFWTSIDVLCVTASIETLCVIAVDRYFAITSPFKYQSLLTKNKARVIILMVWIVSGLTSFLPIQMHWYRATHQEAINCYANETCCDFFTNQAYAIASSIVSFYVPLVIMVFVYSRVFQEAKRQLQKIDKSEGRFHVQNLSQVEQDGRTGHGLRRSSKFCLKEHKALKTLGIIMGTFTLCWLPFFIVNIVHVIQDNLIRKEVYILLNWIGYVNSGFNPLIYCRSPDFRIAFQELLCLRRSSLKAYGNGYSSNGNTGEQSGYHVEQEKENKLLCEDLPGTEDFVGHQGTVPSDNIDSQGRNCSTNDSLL
Mitogen-activated protein kinase kinase kinase 6 (Homo sapiens), sequence (O95382 whole entry): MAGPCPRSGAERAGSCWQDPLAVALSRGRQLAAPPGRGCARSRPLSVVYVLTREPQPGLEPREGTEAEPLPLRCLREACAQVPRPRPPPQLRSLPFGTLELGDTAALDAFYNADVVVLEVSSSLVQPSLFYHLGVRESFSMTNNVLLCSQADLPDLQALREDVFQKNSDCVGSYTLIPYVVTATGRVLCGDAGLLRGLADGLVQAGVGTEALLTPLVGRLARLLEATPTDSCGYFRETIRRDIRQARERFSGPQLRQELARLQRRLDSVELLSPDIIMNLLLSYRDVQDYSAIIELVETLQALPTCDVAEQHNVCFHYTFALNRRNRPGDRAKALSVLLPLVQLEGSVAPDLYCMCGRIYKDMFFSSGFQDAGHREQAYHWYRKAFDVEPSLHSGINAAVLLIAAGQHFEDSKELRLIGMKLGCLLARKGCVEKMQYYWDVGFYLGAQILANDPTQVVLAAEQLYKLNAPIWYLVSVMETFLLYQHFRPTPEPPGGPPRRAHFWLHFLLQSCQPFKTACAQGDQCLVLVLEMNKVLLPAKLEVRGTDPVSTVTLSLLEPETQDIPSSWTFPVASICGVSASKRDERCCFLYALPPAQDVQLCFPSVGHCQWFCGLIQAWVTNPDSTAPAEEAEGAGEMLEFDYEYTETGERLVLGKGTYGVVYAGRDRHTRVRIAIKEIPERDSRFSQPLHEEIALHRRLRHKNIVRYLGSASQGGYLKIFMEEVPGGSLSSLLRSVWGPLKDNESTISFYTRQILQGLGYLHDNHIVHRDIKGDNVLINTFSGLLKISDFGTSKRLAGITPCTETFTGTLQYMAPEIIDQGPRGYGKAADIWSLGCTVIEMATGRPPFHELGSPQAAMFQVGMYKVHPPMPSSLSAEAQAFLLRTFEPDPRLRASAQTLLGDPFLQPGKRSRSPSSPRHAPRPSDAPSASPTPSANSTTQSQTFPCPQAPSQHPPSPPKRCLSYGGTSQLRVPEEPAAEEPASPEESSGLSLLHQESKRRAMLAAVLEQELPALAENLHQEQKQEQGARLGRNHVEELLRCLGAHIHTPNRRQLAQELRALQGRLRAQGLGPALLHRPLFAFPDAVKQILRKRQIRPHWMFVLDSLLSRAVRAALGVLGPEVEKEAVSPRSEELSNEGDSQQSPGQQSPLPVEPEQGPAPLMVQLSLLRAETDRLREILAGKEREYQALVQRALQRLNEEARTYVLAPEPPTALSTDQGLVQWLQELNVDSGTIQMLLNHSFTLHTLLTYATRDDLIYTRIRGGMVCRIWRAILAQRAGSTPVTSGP
Serine/threonine-protein kinase Nek1 (Homo sapiens), sequence (Q96PY6 whole entry, canonical isoform): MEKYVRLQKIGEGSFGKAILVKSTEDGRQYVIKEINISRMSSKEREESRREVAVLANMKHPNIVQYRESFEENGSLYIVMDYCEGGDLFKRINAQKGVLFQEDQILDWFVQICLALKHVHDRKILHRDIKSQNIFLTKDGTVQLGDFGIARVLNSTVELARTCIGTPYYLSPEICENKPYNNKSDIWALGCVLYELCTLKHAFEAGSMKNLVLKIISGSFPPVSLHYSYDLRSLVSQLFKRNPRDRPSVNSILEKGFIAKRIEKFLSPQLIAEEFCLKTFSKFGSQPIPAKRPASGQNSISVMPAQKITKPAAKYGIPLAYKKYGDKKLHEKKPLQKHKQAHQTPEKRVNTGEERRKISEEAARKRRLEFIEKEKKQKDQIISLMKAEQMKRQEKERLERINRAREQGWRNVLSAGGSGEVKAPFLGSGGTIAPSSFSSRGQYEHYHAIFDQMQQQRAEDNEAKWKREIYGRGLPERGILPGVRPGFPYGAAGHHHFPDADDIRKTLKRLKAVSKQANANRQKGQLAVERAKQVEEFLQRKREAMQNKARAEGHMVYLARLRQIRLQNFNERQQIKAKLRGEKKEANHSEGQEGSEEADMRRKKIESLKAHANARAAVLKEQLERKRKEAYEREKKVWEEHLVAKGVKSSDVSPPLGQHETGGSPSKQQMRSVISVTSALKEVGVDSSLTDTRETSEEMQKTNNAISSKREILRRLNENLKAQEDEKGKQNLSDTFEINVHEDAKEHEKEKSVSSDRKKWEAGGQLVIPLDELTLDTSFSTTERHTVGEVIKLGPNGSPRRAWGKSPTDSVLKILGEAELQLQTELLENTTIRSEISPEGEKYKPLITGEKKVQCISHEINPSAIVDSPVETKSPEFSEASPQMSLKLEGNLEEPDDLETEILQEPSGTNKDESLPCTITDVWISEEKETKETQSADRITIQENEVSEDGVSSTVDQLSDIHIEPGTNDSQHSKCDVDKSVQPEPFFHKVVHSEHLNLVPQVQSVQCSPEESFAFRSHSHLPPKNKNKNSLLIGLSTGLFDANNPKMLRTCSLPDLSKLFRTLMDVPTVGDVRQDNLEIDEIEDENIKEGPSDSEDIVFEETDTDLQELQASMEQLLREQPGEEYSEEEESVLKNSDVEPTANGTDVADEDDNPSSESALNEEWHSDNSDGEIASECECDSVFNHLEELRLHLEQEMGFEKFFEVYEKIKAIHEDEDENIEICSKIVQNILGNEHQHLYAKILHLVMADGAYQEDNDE
Aurora kinase C (Homo sapiens), sequence (Q9UQB9 whole entry): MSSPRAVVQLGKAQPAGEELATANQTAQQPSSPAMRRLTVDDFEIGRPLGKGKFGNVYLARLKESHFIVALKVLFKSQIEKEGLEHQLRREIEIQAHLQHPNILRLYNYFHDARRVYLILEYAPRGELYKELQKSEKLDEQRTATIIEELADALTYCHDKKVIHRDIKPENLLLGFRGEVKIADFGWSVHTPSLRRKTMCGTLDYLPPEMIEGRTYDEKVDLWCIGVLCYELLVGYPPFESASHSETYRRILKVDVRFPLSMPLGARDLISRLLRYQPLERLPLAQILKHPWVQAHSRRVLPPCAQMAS
Phosphorylase b kinase gamma catalytic chain, skeletal muscle/heart isoform (Homo sapiens), sequence (Q16816 whole entry, looked up, canonical isoform): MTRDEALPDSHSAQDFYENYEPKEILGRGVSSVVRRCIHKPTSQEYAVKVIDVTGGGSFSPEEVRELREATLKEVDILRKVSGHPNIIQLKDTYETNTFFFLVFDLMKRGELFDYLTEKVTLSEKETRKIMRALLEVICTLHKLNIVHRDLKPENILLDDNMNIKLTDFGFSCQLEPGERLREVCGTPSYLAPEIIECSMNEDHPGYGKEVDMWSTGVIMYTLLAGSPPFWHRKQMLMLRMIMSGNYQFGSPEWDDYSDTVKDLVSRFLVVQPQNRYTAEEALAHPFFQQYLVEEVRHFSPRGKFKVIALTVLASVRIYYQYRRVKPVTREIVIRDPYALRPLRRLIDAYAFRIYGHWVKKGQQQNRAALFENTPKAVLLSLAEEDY
TGF-beta receptor type-1 (Homo sapiens), sequence (P36897 whole entry): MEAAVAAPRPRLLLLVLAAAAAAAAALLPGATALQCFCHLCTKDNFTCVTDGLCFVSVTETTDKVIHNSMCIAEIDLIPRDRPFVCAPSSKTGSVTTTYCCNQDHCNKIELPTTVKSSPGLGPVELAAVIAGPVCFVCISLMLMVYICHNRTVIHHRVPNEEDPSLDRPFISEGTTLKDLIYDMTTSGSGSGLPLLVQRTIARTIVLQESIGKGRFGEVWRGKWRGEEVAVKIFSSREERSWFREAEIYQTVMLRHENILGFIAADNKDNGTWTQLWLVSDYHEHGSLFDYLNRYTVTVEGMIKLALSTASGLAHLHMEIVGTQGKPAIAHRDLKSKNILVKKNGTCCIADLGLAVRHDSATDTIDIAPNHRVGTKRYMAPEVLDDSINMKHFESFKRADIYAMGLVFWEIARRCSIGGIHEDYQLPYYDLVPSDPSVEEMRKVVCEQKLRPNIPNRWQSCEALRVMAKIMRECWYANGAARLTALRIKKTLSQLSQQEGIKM

Cc1nc(N2CC[C@@H](O)C2)ncc1-c1cc(C(F)(F)F)cc2[nH]ncc12 [TP-004]
inactive: residual activity [1] 100% | residual activity [2] 54% | residual activity [3] 77% | residual activity [4] 82% | residual activity [5] 100% | residual activity [6] 67% | residual activity [7] 100% | residual activity [8] 69% | residual activity [9] 100% | residual activity [10] 100% | residual activity [11] 93% | residual activity [12] 100% | residual activity [13] 100% | residual activity [14] 100% | residual activity [15] 70% | residual activity [16] 90% | residual activity [17] 100% | residual activity [18] 100% | residual activity [19] 60% | residual activity [20] 58% | residual activity [21] 100% | residual activity [22] 58% | residual activity [23] 100% | inhibition [24] -2.23% | residual activity [25] 75% | residual activity [26] 87% | residual activity [27] 100% | residual activity [28] 63% | residual activity [29] 68% | residual activity [30] 76% | residual activity [31] 64% | residual activity [32] 80% | residual activity [33] 91% | residual activity [34] 91% | residual activity [35] 80% | residual activity [36] 100% | residual activity [37] 74% | residual activity [38] 100% | residual activity [39] 81% | residual activity [40] 100% | residual activity [41] 71% | residual activity [42] 56% | residual activity [43] 65% | residual activity [44] 100% | residual activity [45] 77%

From ChEMBL document CHEMBL4507303, “Data for DCP probe TP-004” (2021)
